Patent US20200331904A1, “3-AMINO-[1,2,4]-TRIAZOLE DERIVATIVES AND THEIR USE FOR CONTROLLING UNDESIRED PLANT GROWTH” (Bayer CropScience Aktiengesellschaft, priority 2017, published 2020)

Experiments:
Assay type in all cases: in vivo
Echinochloa crus-galli [1] = experiment: Pre-emergence herbicidal efficacy, ECHCG; settings: Table B1, application rate 320 g/ha, scored visually after about 3 weeks vs untreated controls
Procedure, shortened: (§1)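 Visual percent activity relative to untreated plants (0% = like control, 100% = dead), scored about 3 weeks after treatment under greenhouse conditions.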

Lolium rigidum = experiment: Pre-emergence herbicidal efficacy, LOLRI; settings: Table B1, application rate 320 g/ha, scored visually after about 3 weeks vs untreated controls
Procedure, shortened: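 Seeds sown in pots and covered with soil. Greenhouse-grown about 3 weeks, then visually scored as % activity vs untreated controls (100% = dead, 0% = like control).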

Setaria viridis = experiment: Pre-emergence herbicidal efficacy, SETVI; settings: Table B1, application rate 320 g/ha, scored visually after about 3 weeks vs untreated controls
Procedure, shortened: as §1

Abutilon theophrasti = experiment: Pre-emergence herbicidal efficacy, ABUTH; settings: Table B1, application rate 320 g/ha, scored visually after about 3 weeks vs untreated controls
Procedure, shortened: as §1

Amaranthus retroflexus [2] = experiment: Pre-emergence herbicidal efficacy, AMARE; settings: Table B1, application rate 320 g/ha, scored visually after about 3 weeks vs untreated controls
Procedure, shortened: as §1

Matricaria inodora = experiment: Pre-emergence herbicidal efficacy, MATIN; settings: Table B1, application rate 320 g/ha, scored visually after about 3 weeks vs untreated controls
Procedure, shortened: as §1

Polygonum convolvulus = experiment: Pre-emergence herbicidal efficacy, POLCO; settings: Table B1, application rate 320 g/ha, scored visually after about 3 weeks vs untreated controls
Procedure, shortened: as §1

Stellaria media [3] = experiment: Pre-emergence herbicidal efficacy, STEME; settings: Table B1, application rate 320 g/ha, scored visually after about 3 weeks vs untreated controls
Procedure, shortened: as §1

Viola tricolor [4] = experiment: Pre-emergence herbicidal efficacy, VIOTR; settings: Table B1, application rate 320 g/ha, scored visually after about 3 weeks vs untreated controls
Procedure, shortened: as §1

Veronica persica [5] = experiment: Pre-emergence herbicidal efficacy, VERPE; settings: Table B1, application rate 320 g/ha, scored visually after about 3 weeks vs untreated controls
Procedure, shortened: as §1

Viola tricolor [6] = experiment: Post-emergence herbicidal efficacy, VIOTR; settings: application rate 320 g/ha
From the text: (§2) ABUTH: Abutilon theophrasti ALOMY: Alopecurus myosuroides AMARE: Amaranthus retroflexus AVEFA: Avena fatua CYPES: Cyperus esculentus ECHCG: Echinochloa crus-galli LOLMU: Lolium multiflorum MATIN: Matricaria inodora PHBPU: Ipomoea purpurea POLCO: Polygonum convolvulus SETVI: Setaria viridis STEME: Stellaria media VERPE: Veronica persica VTOTR: Viola tricolor
(§3) C.2 Post-Emergence Herbicidal Action and Crop Plant Compatibility
(§4) Seeds of monocotyledonous and dicotyledonous weeds and crop plants are placed in sandy loam in plastic or organic planting pots, covered with soil and cultivated in a greenhouse under controlled growth conditions. 2 to 3 weeks after sowing, the test plants are treated at the one-leaf stage. The compounds of the invention, formulated in the form of wettable powders (WP) or as emulsion concentrates (EC), are then sprayed onto the green parts of the plants as aqueous suspension or emulsion with addition of 0.5% additive at a water application rate of […] (converted). After the test plants had been kept in the greenhouse under optimum growth conditions for about 3 weeks, the activity of the preparations is rated visually in comparison to untreated controls. For example, 100% activity=the plants have died, 0% activity=like control plants.

Veronica persica [7] = experiment: Post-emergence herbicidal efficacy, VERPE; settings: application rate 320 g/ha
From the text: as §2, §3, §4

Echinochloa crus-galli [8] = experiment: Post-emergence herbicidal efficacy, ECHCG; settings: application rate 320 g/ha, rated visually after about 3 weeks
From the text: as §2, §3, §4

Amaranthus retroflexus [9] = experiment: Post-emergence herbicidal efficacy, AMARE; settings: application rate 320 g/ha, rated visually after about 3 weeks
From the text: as §2, §3, §4

Stellaria media [10] = experiment: Post-emergence herbicidal efficacy, STEME; settings: application rate 320 g/ha, rated visually after about 3 weeks
From the text: as §2, §3, §4

[11] = rated visually after about 3 weeks (Table B7)
[12] = rated visually after about 3 weeks (Table B5)

Row | SMILES | Herbicidal efficacy against ECHCG (Echinochloa crus-galli [1]) | Herbicidal efficacy against LOLRI (Lolium rigidum) | Herbicidal efficacy against SETVI (Setaria viridis) | Herbicidal efficacy against ABUTH (Abutilon theophrasti) | Herbicidal efficacy against AMARE (Amaranthus retroflexus [2]) | Herbicidal efficacy against MATIN (Matricaria inodora) | Herbicidal efficacy against POLCO (Polygonum convolvulus) | Herbicidal efficacy against STEME (Stellaria media [3]) | Herbicidal efficacy against VIOTR (Viola tricolor [4]) | Herbicidal efficacy against VERPE (Veronica persica [5]) | Herbicidal efficacy against VIOTR (Viola tricolor [6]; [11]) | Herbicidal efficacy against VERPE (Veronica persica [7]; [11]) | Herbicidal efficacy against ECHCG (Echinochloa crus-galli [8]) | Herbicidal efficacy against AMARE (Amaranthus retroflexus [9]) | Herbicidal efficacy against STEME (Stellaria media [10]) | Herbicidal efficacy against VIOTR (Viola tricolor [6]; [12]) | Herbicidal efficacy against VERPE (Veronica persica [7]; [12])
1 | Cc1ccc2c(c1)[C@H](Nc1nc3n(n1)CCN(S(C)(=O)=O)C3)[C@@H](C)C2 [Example I-190] | 100% | 100% | 100% | 100% | 100% | 100% | 100% | 100% | 100% | 100% | 80% | 80% |  |  |  |  | 
2 | Cc1ccc2c(c1)[C@H](Nc1nc3n(n1)CCN(S(C)(=O)=O)C3)CCC2 [Example I-198] | 90% | 100% | 90% | 100% | 100% | 100% | 100% | 100% | 100% | 100% | 80% | 90% |  |  |  |  | 
3 | Cc1ccc2c(c1)[C@H](Nc1nc3n(n1)CCN(S(=O)(=O)C1CC1)C3)CCC2 [Example I-200] | 100% | 100% | 100% | 100% | 100% | 100% | 100% | 100% | 100% | 100% | 80% | 100% |  |  |  |  | 
4 | CC(=O)N1CCn2nc(N[C@@H]3CCc4ccc(C)cc43)nc2C1 [Example I-173] | 100% | 100% | 100% | 100% | 100% | 100% | 100% | 100% | 100% | 100% | 80% | 90% |  |  |  |  | 
5 | Fc1cccc2c1CCC[C@H]2Nc1nc2n(n1)CCCCS2 [Example I-213] | 100% | 100% | 100% | 100% | 100% | 100% | 100% | 100% | 100% | 100% | 90% | 90% |  |  |  |  | 
6 | Cc1ccc2c(c1)[C@H](Nc1nc3n(n1)CCCCS3)CCC2 [Example I-402] | 100% | 100% | 100% | 100% | 100% | 100% | 100% | 100% | 100% | 100% |  |  | 100% | 90% | 90% | 90% | 90%
7 | Cc1ccc2c(c1)C(Nc1nc3n(n1)CCC(=O)N3C)CC2 (stereo not drawn) [Example I-227] | 100% | 100% | 100% | 100% | 100% | 100% | 100% | 100% | 100% | 100% | 90% | 100% |  |  |  |  | 
8 | CC(=O)N1CCn2nc(NC3c4cc(C)ccc4CC3C)nc2C1 (stereo not drawn) [Example I-165] | 100% | 100% | 100% | 100% | 100% | 100% | 100% | 100% | 100% | 100% | 80% | 90% |  |  |  |  | 
9 | Cc1ccc2c(c1)C(Nc1nc3n(n1)CCCCS3(=O)=O)CCC2 (stereo not drawn) [Example I-234] | 100% | 100% | 100% | 100% | 100% | 100% | 100% | 100% | 100% | 100% | 90% | 80% |  |  |  |  | 
10 | CC(=O)N1CCn2nc(N[C@@H]3CCCc4ccccc43)nc2C1 [Example I-163] | 100% | 80% | 100% | 100% | 100% | 100% | 100% | 100% | 100% | 100% | 80% | 90% |  |  |  |  | 
